Columns and labels:
[1] = tested on: tissue-equivalent of the present invention (non-dividing fibroblasts); assay: Camptothecin toxicity on the non-dividing model (tissue equivalent), MTT; assay type: cell-based, human; settings: non-dividing cells
Method: (§1) As mentioned previously, the tissue equivalent of the present invention could be used as an in vitro model of normal non-dividing cells for safety testing of anti-cancer compounds. To test its usefulness as such a model, dividing monolayers of fibroblasts and the tissue-equivalent of the present invention were incubated with or without (control) camptothecin, an anti-cancer drug known to act on dividing cells and not on non-dividing cells. Both were incubated for the same period of time. Then the metabolic activity was assessed by incubating both groups in MTT, which was quantified by spectrophotometry. […] Leroy et al. Ann. N.Y. Acad. Sci. (2000) 922:1-10. Thus, these are normal cells in a non-dividing state, which could be a model of the normal quiescent cells of the human body, in contrast to the abnormal tumour cells which are rapidly dividing.

[2] = tested on: dividing monolayers of fibroblasts; assay: Camptothecin toxicity on dividing monolayers, MTT; assay type: cell-based, human; settings: actively dividing monolayer cells
Method: as §1

[3] = tested on: neuropathic diabetic foot ulcers; settings: topical; cited from earlier work

Compound | Toxicity (metabolic activity, MTT) [1] | Toxicity (metabolic activity, MTT) [2] | Acceleration in the healing of ulcers [3] [%]
CC[C@@]1(O)C(=O)OCc2c1cc1n(c2=O)Cc2cc3ccccc3nc2-1 [camptothecin] | no toxicity | toxic | –
Regranex® Becaplermin: FDA-approved topical platelet-derived growth factor (PDGF) for chronic diabetic neuropathic ulcers | – | – | 15
